The experiment deals with T1, ST3Gal-II (Rattus norvegicus, UniProt Q11205).
T1 construct: purchased Calbiochem
T1 sequence (Q11205 1-350): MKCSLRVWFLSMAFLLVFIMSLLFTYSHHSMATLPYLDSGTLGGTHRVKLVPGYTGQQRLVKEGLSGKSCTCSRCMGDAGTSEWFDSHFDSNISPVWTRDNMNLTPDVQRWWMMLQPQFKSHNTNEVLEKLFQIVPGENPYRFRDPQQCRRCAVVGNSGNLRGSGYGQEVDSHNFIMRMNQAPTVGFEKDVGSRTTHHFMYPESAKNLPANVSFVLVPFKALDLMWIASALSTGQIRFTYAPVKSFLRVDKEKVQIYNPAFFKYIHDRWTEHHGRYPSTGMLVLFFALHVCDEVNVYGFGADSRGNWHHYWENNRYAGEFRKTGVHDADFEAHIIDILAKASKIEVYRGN
Put plainly: Reverse sialylation equilibrium constant (Keq) and 5′-CMP dose dependence. Format: biochemical. The note with it: donor 0.15 mM [2], 0.15 mU ST3Gal-II, 2 hours; read-out: concentration of 5′-CMP that mediated half-maximal transfer of [9-3H]NeuAc. The protocol:
FIG. 2. Equilibrium constant. a. Reversible sialyltransferase activity at increasing concentration of 5′-CMP. 0.15 mM of donor [9-^3H]NeuAcα2,3Galβ1,3(4-FGlcNAcβ1,6)GalNAcα-O-Bn [9-^3H[2]] was incubated with varying concentrations of 5′-CMP and 0.15 mU ST3Gal-II under conditions described in FIG. 1 for 2 hours. The consumption of the [9-^3H]NeuAc benzyl glycoside donor was measured by subjecting the incubation mixture to Sep-Pak C18 fractionation, which binds the donor and not CMP-[9-^3H]NeuAc. The reaction proceeded to ½ the maximum extent at 80 μM 5′-CMP. b. Equilibrium constant Keq (=0.35) calculated for data in panel a. c. Varying concentrations of 5′-CMP was sialylated with ST3Gal-II (2.0 mU) using either 0.15 mM (panel c) or 1.5 mM (not shown) sialyl donor [9-^3H]NeuAcα2,3Galβ1,3GalNAcβ1,3Galα-O-Me [9-^3H[3]] for 4 hours. The product CMP-[9-^3H]NeuAc and the unused [9-^3H[3]] were separated and quantitated by Dowex-1-Formate method. d. Equilibrium constant, Keq=98.9. Diamonds denote data from 1.5 mM runs while data from 0.15 mM runs are depicted by squares.
a) Biogel P2 chromatography: A Biogel P2 column (Fine Mesh; 1.0×116.0 cm) was used with 0.1 M pyridine acetate (pH5.4) as the eluent at room temperature. […] Fractions of 1.0 ml were collected. The bound material was then eluted with 0.5M GlcNAc or 0.2M Gal in the same buffer. […] Calculation of equilibrium constant, Keq: Equilibrium constant was calculated for selected reversible bimolecular reactions that are denoted by:
[formula] Here, [9-^3H]D* denotes the radiolabeled donor and D′ is the donor after removal of sialic acid. Similarly, A and [9-^3H]A* denote the acceptor before and after incorporation of NeuAc. In each run, unreacted [9-^3H]D* and product [9-^3H] A* are measured using radioactivity measurements. The equilibrium constant (Keq=kreverse/kforward, dimensionless units) are then determined using the following equation, where terms in square brackets denote concentrations:
[formula] [D0] and [A0] are initial donor and acceptor concentrations. A plot of [D*]/([D0]−[D*]) versus [A*]/([A0]−[A*]) yields Keq from slope data. Keq<1 implies that the forward reaction is favored and the reaction proceeds to the right side to form [9-^3H]A* efficiently. Liquid Chromatography Coupled with Tandem Mass Spectrometry (LC/MS/MS)
Similar results were observed upon increasing concentrations of 5′-CMP when [9-^3H]NeuAcα2,3Galβ1,3(4-FGlcNAcβ1,6) GalNAcα-O-Bn [9-^3H[2]] was donor (FIG. 2a, b). The concentration of 5′-CMP that mediated half-maximal transfer of [9-^3H]NeuAc was 80 μM. The bimolecular equilibrium constant (Keq) for this reaction was 0.35 (dimensionless units, Table I). Indeed, the Keq varied depending on the donor and it was 98.9 when the donor was based on the globo glycolipid, [9-^3H]NeuAcα2,3Galβ1,3GalNAcβ1,3 Gala-O-Me [[9-^3H] [3]] (FIG. 2c, d). Upon comparing and [3], it is apparent that reverse sialylation proceeds more effectively in the case of [2]. To further confirm the above estimates of Keq for core-2 based structures, we also calculated this parameter for our previously published data where [9-^3H]CMP-NeuAc was donor and mucin core-2 tetrasaccharide Galβ1,4GlcNAcβ1,6(Galβ1,3)GalNAcα-O-Bn was acceptor. In this case, Keq measured with respect to the rate of mucin core-2 sialylation was 5.55 (data not shown), which translates to a reverse sialylation Keq of 0.18.

`Nc1ccn([C@@H]2O[C@H](COP(=O)(O)O)[C@@H](O)[C@H]2O)c(=O)n1` [5′-CMP, Cytidine 5′-monophosphate]: the EC50 stood at 80 µM.

The values above are taken from patent US8278072B1, “Method for synthesis of sialylated products using reversible sialylation” (Health Research, Inc., priority 2007, dated 2012).
